Experiments:
Assay type in all cases: in vivo
AVEFA = test: Pre-emergence herbicidal action (PE), greenhouse pot test, AVEFA; details: pre-emergence (PE); application rate 320; scored visually after about 3 weeks vs untreated controls; 100% = plants have died, 0% = like control plants
Text: (§1) 1. Pre-emergence herbicidal action and crop plant compatibility (pre-emergence, PE) Seeds of monocotyledonous and dicotyledonous weed plants and crop plants are placed in plastic or organic planting pots and covered with soil. The compounds of the invention, formulated in the form of wettable powders (WP) or as emulsion concentrates (EC), are then applied onto the surface of the covering soil as aqueous suspension or emulsion with addition of 0.5% additive at a water application rate of […] (converted). After the treatment, the pots are placed in a greenhouse and kept under good growth conditions for the trial plants. After about 3 weeks, the effect of the preparations is scored visually in comparison with untreated controls as percentages. The tables below show the herbicidal activity of numerous compounds according to the invention against important harmful plants. For example, 100% activity=the plants have died, 0% activity=like control plants.

[1] = system: monocotyledonous and dicotyledonous weeds and crop plants; test: Post-emergence herbicidal action and crop plant compatibility (PO), including comparison with A-117; details: post-emergence (PO), application rate 80, rated visually after about 3 weeks; for Herbicidal activity ABUTH: Abutilon theophrasti; for Herbicidal activity AMARE: Amaranthus retroflexus; for Herbicidal activity CYPES: Cyperus esculentus; for Herbicidal activity ECHCG: Echinochloa crus-galli; for Herbicidal activity PHBPU: Ipomoea purpurea; for Herbicidal activity SETVI: Setaria viridis; for Herbicidal activity STEME: Stellaria media; for Herbicidal activity VIOTR: Viola tricolor
Description: 2. Post-emergence herbicidal action and crop plant compatibility (post-emergence, PO) Seeds of monocotyledonous and dicotyledonous weeds and crop plants are placed in sandy loam in plastic or organic planting pots, covered with soil and cultivated in a greenhouse under controlled growth conditions. 2 to 3 weeks after sowing, the test plants are treated at the one-leaf stage. The compounds of the invention, formulated in the form of wettable powders (WP) or as emulsion concentrates (EC), are then sprayed onto the green parts of the plants as aqueous suspension or emulsion with addition of 0.5% additive at a water application rate of […] (converted). After the test plants had been kept in the greenhouse under optimum growth conditions for about 3 weeks, the activity of the preparations is rated visually in comparison to untreated controls. The tables below show the herbicidal activity of numerous compounds according to the invention against important harmful plants. For example, 100% activity=the plants have died, 0% activity=like control plants.
(§2) In a comparative experiment, by way of example, the herbicidal activity of compound No. 2-13 according to the invention was compared to that of compound No. A-117 known from WO 2013/076315 A2.

[2] = system: monocotyledonous and dicotyledonous weed plants and crop plants; test: Pre-emergence herbicidal action and crop plant compatibility (PE), other species and comparison with A-117; details: pre-emergence (PE), application rate 320, scored visually after about 3 weeks; for Herbicidal activity ABUTH: Abutilon theophrasti; for Herbicidal activity AMARE: Amaranthus retroflexus; for Herbicidal activity CYPES: Cyperus esculentus; for Herbicidal activity ECHCG: Echinochloa crus-galli; for Herbicidal activity MATIN: Matricaria inodora; for Herbicidal activity POLCO: Polygonum convolvulus; for Herbicidal activity STEME: Stellaria media; for Herbicidal activity VIOTR: Viola tricolor
Text: as §1, §2

SETVI = test: Pre-emergence herbicidal action (PE), greenhouse pot test, SETVI; details: pre-emergence (PE), Setaria viridis, application rate 320, scored visually after about 3 weeks
Text: as §1

With CCn1nnnc1NC(=O)c1ccc(C(F)(F)F)c2c1OCC[S+]2[O-] (stereo not drawn) [Example 3-16] the “herbicidal activity AVEFA” value (AVEFA) was 100%, the “Herbicidal activity ABUTH” value [1] was 100% and the “Herbicidal activity AMARE” value [1] was 100%. The “herbicidal activity AVEFA” value ([1]; Avena fatua) was 100%, the “Herbicidal activity CYPES” value [1] was 90% and the “Herbicidal activity ECHCG” value [1] was 90%. For the same compound, the “Herbicidal activity PHBPU” value [1] was 100%, the “Herbicidal activity POLCO” value ([1]; Polygonum convolvulus) was 90% and the “Herbicidal activity SETVI” value [1] was 90%. The “Herbicidal activity STEME” value [1] was 100%, the “Herbicidal activity VERPE” value ([1]; Veronica persica) was 100% and the “Herbicidal activity VIOTR” value [1] was 100%. For the same compound, the “Herbicidal activity ABUTH” value [2] was 100%, the “Herbicidal activity AMARE” value [2] was 100% and the “Herbicidal activity CYPES” value [2] was 100%. For the same compound, the “Herbicidal activity ECHCG” value [2] was 100%, the “Herbicidal activity MATIN” value [2] was 100% and the “Herbicidal activity POLCO” value [2] was 100%. For the same compound, the “Herbicidal activity STEME” value [2] was 100%, the “Herbicidal activity VIOTR” value [2] was 100% and the “Herbicidal activity SETVI” value (SETVI) was 100%.

CCn1nnnc1NC(=O)c1ccc(C(F)(F)F)c2c1OCCS2(=O)=O [Example 3-19] was tested, and the “herbicidal activity AVEFA” value (AVEFA) was 90%, the “Herbicidal activity ABUTH” value [1] was 90% and the “Herbicidal activity AMARE” value [1] was 90%. The “Herbicidal activity CYPES” value [1] was 80%, the “Herbicidal activity ECHCG” value [1] was 100% and the “Herbicidal activity PHBPU” value [1] was 90%. The “Herbicidal activity SETVI” value [1] was 90%, the “Herbicidal activity STEME” value [1] was 100% and the “Herbicidal activity VIOTR” value [1] was 100%. The “Herbicidal activity ABUTH” value [2] was 100%, the “Herbicidal activity AMARE” value [2] was 100% and the “Herbicidal activity CYPES” value [2] was 100%. For the same compound, the “Herbicidal activity ECHCG” value [2] was 100%, the “Herbicidal activity MATIN” value [2] was 100% and the “Herbicidal activity POLCO” value [2] was 90%. The “Herbicidal activity STEME” value [2] was 90%, the “Herbicidal activity VIOTR” value [2] was 100% and the “Herbicidal activity SETVI” value (SETVI) was 100%.
